The values that follow come from ChEMBL document CHEMBL5303711, “ECBD screening data for assay EOS300108” (2023).

The nature of the series: Cytotoxicity activity against human HepG2 cells assessed by CellTiter-Glo luminescent cell viability assay. It counts as toxicity, cell-based. Also noted: assay stage confirmatory assay, source tissue liver. The note with it: HepG2 cells, read-out: IC50 relative.

Each structure is given as a SMILES string. Activity calls are given as the source filed them. No rule for the calls is given here.

With `Cc1[nH]c2ccccc2c1CN1CCN(c2ccccn2)CC1`, the CC50 is 12.9 µM (inactive).

With `CSc1cccc(NS(=O)(=O)c2ccc3c(c2)CCN3C(C)=O)c1`, the CC50 was 6.6 µM (active).

Take `CC1CCC(C(C)C)C(OC(=O)Cn2c(-c3ccc(Br)cc3)[n+](C)c3ccccc32)C1` (stereo unspecified): the CC50 is 4.7 µM (active).

Turning to `Cc1ccc(C)c(C(=O)CN2C3=NCCCN3c3ccccc32)c1`, the CC50 is 9.6 µM (active).

Regarding `O=c1oc(-c2ccccc2)cc(Cl)c1Cl`, the CC50 was 5.5 µM (active).

For the molecule `Oc1cc(O)c2sc(Nc3ccc(F)cc3)nc2n1`, the CC50 was 5.1 µM (active).

In the case of `CCOCc1ccc(O)c2ncccc12`, the CC50 was 5.6 µM (active).

Consider `O=S(=O)(c1ccccc1)N1CCN(c2ccc(Nc3ccncc3)nn2)CC1`, for which the CC50 is 16.9 µM (inactive).

Turning to `CCOC(=O)C(C)Oc1cccc2c(=O)n(CC(=O)Nc3ccc4c(c3)OCCO4)ccc12` (stereo unspecified), the CC50 is 50 µM (inactive).

For `CCOC(=O)C1CCCN(C(=O)C(=O)c2c[nH]c3ccccc23)C1` (stereo unspecified), the CC50 was 9.8 µM (active).

Regarding `CCCCc1c(C)[nH]n(-c2nc3ccccc3[nH]2)c1=O`, the CC50 was 8.9 µM (active).

In the case of `COc1cc(NCCCC(C)N)c2ncccc2c1` (stereo unspecified), the CC50 is 8.6 µM (active).

Take `CNc1nc2c(=O)[nH]c(N)nc2n1[C@@H]1O[C@H](CO)[C@@H](O)[C@H]1O`: the CC50 is 11.4 µM (active).

As for `COc1ccc(Nc2nccc(-c3ccncc3)n2)cc1`, the CC50 was 4.7 µM (active).

For `COc1cc(-c2nnc(SC3=CS(=O)(=O)c4ccccc43)o2)cc(OC)c1OC`, the CC50 was 2.5 µM (active).

Regarding `O=C1CCCN1c1ccc(S(=O)(=O)Nc2cccc3cccnc23)cc1`, the CC50 is 9.7 µM (active).

With `COc1cc(OC)cc(-c2nnc(Nc3nc4c(F)cccc4s3)o2)c1`, the CC50 is 27.8 µM (inactive).

As for `CN(C)c1nc(Nc2ccc(O)cc2)nc2ccccc12`, the CC50 was 9.7 µM (active).

`CN(C)c1nc(Nc2cccc(O)c2)nc2ccccc12`: the CC50 was 12.7 µM (active).

Take `CC1CCN(CCNC(=O)c2c(O)c3sccc3n(Cc3ccccc3)c2=O)CC1`: the CC50 was 22.3 µM (inactive).

For `Oc1cccc2ccc(Nc3ccccn3)nc12`, the CC50 was 0.7 µM (active).

In the case of `CN1CCC2(CC1)CN(S(=O)(=O)c1ccc(Cl)s1)Cc1ccccc1O2`, the CC50 was 9.7 µM (active).

Consider `Cc1ccc(Cl)cc1N1CCN(c2cc([C@H]3C[C@@H](O)C3)ncn2)CC1`, for which the CC50 was 9.5 µM (active).

Regarding `CN(C)CCCN(CCCN(C)C)CC(c1ccccc1)c1ccccc1`, the CC50 was 7.2 µM (active).

Regarding `COc1ccc(-c2ccc(CNCCNCCO)o2)cc1Cl`, the CC50 was 11.4 µM (active).

Consider `Cc1ccn(-c2cc(N3CCN(C(=O)Nc4ccc5c(c4)OCCO5)CC3)ncn2)n1`, for which the CC50 was 10.7 µM (active).

Regarding `CC1CCN(CC(O)COc2ccccc2C(C)(C)C)CC1` (stereo unspecified), the CC50 was 9.6 µM (active).

For `CCc1ccc(S(=O)(=O)N2CCN(c3cc(-n4ccc(C)n4)ncn3)CC2)cc1`, the CC50 is 6.7 µM (active).

For the molecule `O=S(=O)(Nc1cccc2cccnc12)c1ccc2c(c1)OCCO2`, the CC50 is 10.4 µM (active).

Consider `CCOc1ccccc1CN1CCN(Cc2ccc(C)cc2)CC1CCO` (stereo unspecified), for which the CC50 was 12.9 µM (inactive).

Take `Cc1[nH]c2c(C)ccc(F)c2c1CCN`: the CC50 was 11.7 µM (active).

Consider `CCN1CCN(CCOc2ccc3ccccc3c2Cl)CC1`, for which the CC50 is 8 µM (active).

For the molecule `COc1cccc(-c2ccc(=O)n(CC(=O)Nc3ccccn3)n2)c1`, the CC50 is 6.8 µM (active).

`Cc1cc(OCC(O)CN2CCN(C)CC2)cc(C)c1Cl` (stereo unspecified): the CC50 was 13.9 µM (inactive).

On to `Cc1ccc(S(=O)(=O)N2CCN(c3cc(-n4ccnc4C)ncn3)CC2)cc1C`, for which the CC50 is 5.1 µM (active).

As to `O=S(=O)(c1ccc(F)cc1)N1CCN(c2ccc(Nc3ccncc3)nn2)CC1`, the CC50 is 13.6 µM (inactive).

Regarding `O=C(Nc1n[nH]c(C2CC2)n1)C1CC(=O)N(c2ccc(Br)cc2)C1` (stereo unspecified), the CC50 was 1.8 µM (active).

Consider `CC1CC(C)CN(CCCNC(=O)Cn2nc(-c3ccc(Cl)cc3)ccc2=O)C1` (stereo unspecified), for which the CC50 is 14.5 µM (inactive).

Regarding `CC(CNC(=O)C1CCN(C)CC1)Cc1cccc2ccccc12` (stereo unspecified), the CC50 is 11.2 µM (active).

Regarding `CCN(CC)CCN(C(C)=O)c1nc2cc(C)cc(C)c2s1`, the CC50 is 8.6 µM (active).

Regarding `Cc1csc(NC(=O)CC[C@@H]2NC(=O)N(CCc3cccc(F)c3)C2=O)n1`, the CC50 is 8.9 µM (active).

Consider `NCC(c1ccc(Cl)cc1)C1CCCC1` (stereo unspecified), for which the CC50 is 8 µM (active).

Consider `O=c1[nH]c2ccccc2n1C1CCN(c2nccc(-c3cccnc3)n2)CC1`, for which the CC50 was 11.2 µM (active).

On to `Cc1cn2c(=O)c(S(=O)(=O)NCC3CCN(Cc4ccc(Cl)cc4)CC3)c(C)nc2s1`, for which the CC50 was 11.9 µM (active).

For the molecule `CC(N)Cc1ccc2oc3ccccc3c2c1` (stereo unspecified), the CC50 is 8 µM (active).

For the molecule `c1ccc(-c2ccc(CNC3CN4CCC3CC4)cc2)cc1` (stereo unspecified), the CC50 was 5.6 µM (active).

Take `CN(C)CCCN(CCCN(C)C)CC1=CCC2CC1C2(C)C` (stereo unspecified): the CC50 is 9.6 µM (active).

For the molecule `CC(C)c1cc(Br)ccc1OCCCN1CCN(C)CC1`, the CC50 is 4.1 µM (active).

As to `CCn1c(Oc2cccc3cccnc23)nc2c1c(=O)n(C)c(=O)n2C`, the CC50 was 2.9 µM (active).

For the molecule `CNc1nc(Nc2cccc(NC(C)=O)c2)nc2ccccc12`, the CC50 is 5.2 µM (active).

With `COc1ccc(CCN2C(=O)N(C)C(=O)C23CCN(Cc2cccc(OC)c2)CC3)cc1`, the CC50 was 6.6 µM (active).

Take `COc1ccc(-c2cn3nc(N4CCC(C(=O)NCCN(C)C)CC4)sc3n2)cc1`: the CC50 was 3.6 µM (active).

With `CC(=O)CCS(=O)(=O)c1ccc(Cc2ccc(S(=O)(=O)CCC(C)=O)cc2)cc1`, the CC50 is 9.2 µM (active).

In the case of `COc1cc(CN2CCN(c3ccccc3C)CC2)ccc1O`, the CC50 is 8 µM (active).

Regarding `CCCc1cc(N2CCN(CCO)CC2)n2ncc(-c3ccccc3)c2n1`, the CC50 was 11.5 µM (active).

As for `Cc1ccn(-c2cc(N3CCN(C(=O)Nc4ccc5c(c4)OCO5)CC3)ncn2)n1`, the CC50 is 15.7 µM (inactive).

For the molecule `Cc1nc(-c2cccc(C(=O)N3CCN(Cc4noc(-c5ccc(F)cc5)n4)CC3)c2)no1`, the CC50 is 5.4 µM (active).

As to `CCCc1cc(NCCCN2CCOCC2)n2ncc(-c3ccccc3)c2n1`, the CC50 was 10.8 µM (active).

`CC1CN(CCS(=O)(=O)c2ccc(Oc3ccc(S(=O)(=O)CCN4CC(C)OC(C)C4)cc3)cc2)CC(C)O1` (stereo unspecified): the CC50 is 6.1 µM (active).

Consider `CN(C)CCNCc1cccc(OCc2ccc(F)cc2)c1`, for which the CC50 is 15 µM (inactive).

For the molecule `CN1CCN(CCCCOc2ccc(-c3ccccc3)cc2)CC1`, the CC50 was 4 µM (active).

Consider `Cc1ccccc1OCC(=O)Nc1ccc(OC2CCN(C)CC2)cc1`, for which the CC50 was 13.6 µM (inactive).

Turning to `COc1ccc(OC)c(S(=O)(=O)Nc2ccc3nc(S(C)(=O)=O)sc3c2)c1`, the CC50 was 6.9 µM (active).

`Cc1ccc(S(=O)(=O)N2CCN(c3ccc(Nc4ccncc4)nn3)CC2)cc1`: the CC50 is 10.4 µM (active).

For `CN(C)CCN(CCCN)Cc1ccco1`, the CC50 is 12.3 µM (active).

Regarding `CCOc1cccc(OCC)c2c(C)nc(C)c1-2`, the CC50 is 26.6 µM (inactive).

For `COc1cccc(-c2noc(-c3ccc(N4CCN(C(C)C)CC4)nc3)n2)c1OC`, the CC50 is 13.1 µM (active).

In the case of `CC(C)c1ccc(CN(CCCN(C)C)CCCN(C)C)cc1`, the CC50 was 8.8 µM (active).

On to `Cc1cc(F)ccc1N1CCC(N[C@@H]2CCOC[C@H]2OCC2CC2)CC1`, for which the CC50 is 15.6 µM (inactive).

For `COc1ccc(C(O)CN2CCN(c3cc(C)ccc3C)CC2)cc1OC` (stereo unspecified), the CC50 is 10.2 µM (active).

On to `CCN1CCN(CC(O)COc2cc(C)c(Cl)c(C)c2)CC1` (stereo unspecified), for which the CC50 is 12.8 µM (inactive).

With `Cc1cc(OCC(O)CN2CCCCC2)cc(C)c1Cl` (stereo unspecified), the CC50 was 10.5 µM (active).

On to `CCc1ccc(NC(=O)N2CCN(c3cc(-n4ccc(C)n4)ncn3)CC2)cc1`, for which the CC50 was 46.2 µM (inactive).

For the molecule `Cc1ccc(C)c(N2CCN(CCCNC(=O)CC3Oc4ccccc4NC3=O)CC2)c1` (stereo unspecified), the CC50 was 15.7 µM (active).

Turning to `CCCCn1c(=O)c(C(=O)Nc2ccc(O)cc2)c(O)c2ccccc21`, the CC50 was 23 µM (inactive).

As for `C[C@@H](C(=O)Nc1c2c(nn1C)CSC2)N1Cc2ccccc2C1=O`, the CC50 is 15.8 µM (inactive).

Consider `CCc1cccc(NC(=O)N2CCN(c3ccnc(N4CCCC4)n3)CC2)c1`, for which the CC50 is 13.5 µM (inactive).

In the case of `CS(=O)(=O)N1CCc2ccc(NC(=O)Nc3ccc(F)cc3F)cc21`, the CC50 was 24.5 µM (inactive).

Regarding `Cc1cc(NC(=O)CSC(C)C)cc2sc(N)nc12`, the CC50 is 13.7 µM (active).

Turning to `COc1cc(CNCCN(C)C)ccc1OCc1ccc(F)cc1`, the CC50 was 13.1 µM (active).

As to `CN(c1ccc(C(=O)Nc2ccc(S(=O)(=O)N3CCOCC3)cc2)cc1)S(=O)(=O)c1ccccc1`, the CC50 is 2.9 µM (active).

In the case of `COc1ccccc1-c1nnc(-c2ccccc2O)o1`, the CC50 is 5.3 µM (active).

Consider `COc1cccc(NC(=O)N2CCN(c3ccnc(N4CCCCC4)n3)CC2)c1`, for which the CC50 was 11.5 µM (active).

On to `O=C(Nc1ccc2c(c1)OCCO2)N1CCN(c2ccnc(N3CCCCC3)n2)CC1`, for which the CC50 was 12.1 µM (active).

Consider `CN1CCN(C)C(CNc2ncc(F)c(N(C)C)n2)C1` (stereo unspecified), for which the CC50 was 50 µM (inactive).

Consider `Nc1nc(Nc2ccc3c(c2)OCCO3)nc2ccccc12`, for which the CC50 was 8.7 µM (active).

As to `CCOc1cc(CNCC(C)O)ccc1OCc1ccc(C)cc1` (stereo unspecified), the CC50 was 9.4 µM (active).

Regarding `CC1(C)CC(=O)c2cn(-c3ccccc3)c(=O)c(C(=O)Nc3cccnc3)c2C1`, the CC50 is 9.2 µM (inactive).

For `O=C(Nc1nc(-c2ccc(S(=O)(=O)N3CCOCC3)cc2)cs1)c1cccs1`, the CC50 was 5.3 µM (active).

Consider `Cc1cc(OCCOCCN2CCN(C)CC2)c(Cl)c(C)c1Cl`, for which the CC50 was 5.3 µM (active).

For `COc1ccc(Nc2nccc(-c3cccnc3)n2)cc1`, the CC50 is 9.9 µM (active).
